# Where two headings read alike, the source gives them in different places.
# Columns and labels:
# Experiment in all cases: biochemical
# Set-up in all cases: Eurofins KinaseProfiler full panel at Km ATP, residual kinase activity (%) relative to DMSO
# CDKL4(h) = CDKL4(h) (Homo sapiens, UniProt Q5MAI5)
# Description: (§1) Eurofins performed a “Full KP Panel [Km ATP], KinaseProfile” which contains 429 radiometric kinase activity assays. The remaining kinase activity (%) was determined after treatment with the compounds at a concentration of 10 µM (Cfr. supporting information). Since we could not confirm the interaction between Spautin-1 analogues and USP13, a kinase screening was performed using a set of four compounds (Spautin-1 and three analogues) to discover off-targets and identify kinases that are potentially responsible for the reduction in cell viability observed in our screen (Table 2). The KINOMEscan from Eurofins was performed (see Table S1). This screen consists of a competitive binding assay in which the DNA-tagged kinase is incubated with one of the compounds in the presence of immobilized active site binding ligands. Binding of the compounds to the kinase hampers the binding of the kinase to the ligands and this inhibition was quantified by qPCR. The residual kinase activity, which represents the percentage of kinase attached to the immobilized ligands, was determined for 428 kinases at a standard screening concentration of 10 µM of the compounds dissolved in DMSO [61].
# CaMKIIδ(h) = biological target: T1, CaMKIIδ(h) (Homo sapiens, UniProt Q13557)
# T1 construct: gene CAMK2D
# Description: as §1
# FGFR2(h) = FGFR2(h) (Homo sapiens, UniProt P21802)
# Description: as §1
# HIPK3(h) = HIPK3(h) (Homo sapiens, UniProt Q9H422)
# Description: as §1
# KDR(h) = KDR(h) (Homo sapiens, UniProt P35968)
# Description: as §1
# MARK1(h) = MARK1(h) (Homo sapiens, UniProt Q9P0L2)
# Description: as §1
# MST1(h) = biological target: T2, MST1(h) (Homo sapiens, UniProt Q13043)
# T2 construct: gene STK4
# T2 sequence (Q13043 1-487): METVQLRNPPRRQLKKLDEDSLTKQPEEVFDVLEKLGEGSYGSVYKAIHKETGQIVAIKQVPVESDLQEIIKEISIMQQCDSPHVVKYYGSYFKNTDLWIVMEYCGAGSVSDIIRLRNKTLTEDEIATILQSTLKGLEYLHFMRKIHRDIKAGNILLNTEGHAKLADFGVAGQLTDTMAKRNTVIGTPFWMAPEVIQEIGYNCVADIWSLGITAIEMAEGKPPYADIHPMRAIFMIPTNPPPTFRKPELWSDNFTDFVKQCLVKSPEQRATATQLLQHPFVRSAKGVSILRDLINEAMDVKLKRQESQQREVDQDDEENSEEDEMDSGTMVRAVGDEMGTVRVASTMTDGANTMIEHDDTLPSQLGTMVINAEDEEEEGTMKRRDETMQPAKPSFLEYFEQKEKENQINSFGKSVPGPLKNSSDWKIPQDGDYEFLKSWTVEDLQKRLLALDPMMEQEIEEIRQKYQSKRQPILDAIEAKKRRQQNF
# Description: as §1
# PDGFRα(h) = biological target: T3, PDGFRα(h) (Homo sapiens, UniProt P16234)
# T3 construct: gene PDGFRA
# Description: as §1
# PhKγ1(h) = biological target: T4, PhKγ1(h) (Homo sapiens, UniProt Q16816)
# T4 construct: gene PHKG1
# Description: as §1
# Ret (V804L)(h) = Ret (V804L)(h) (Homo sapiens, UniProt P07949, V804L)
# Description: as §1
# TRB2(h) = biological target: T5, TRB2(h) (Homo sapiens, UniProt Q92519)
# T5 construct: gene TRIB2
# T5 sequence (Q92519 1-343): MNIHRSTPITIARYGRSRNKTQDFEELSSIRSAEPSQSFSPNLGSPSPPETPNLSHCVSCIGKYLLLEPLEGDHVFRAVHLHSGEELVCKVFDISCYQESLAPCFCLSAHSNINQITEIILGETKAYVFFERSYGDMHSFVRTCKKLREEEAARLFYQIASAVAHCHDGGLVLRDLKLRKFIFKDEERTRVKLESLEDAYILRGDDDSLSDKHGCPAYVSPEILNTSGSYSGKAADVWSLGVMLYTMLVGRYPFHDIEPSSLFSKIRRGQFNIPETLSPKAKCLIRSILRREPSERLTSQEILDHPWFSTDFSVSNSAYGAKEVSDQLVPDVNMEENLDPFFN
# Description: as §1
# [1] = read-out: Residual activity (%) Spautin-1 5aa
# [2] = read-out: Residual activity (%) 5as
# [3] = read-out: Residual activity (%) 5at
# [4] = read-out: Residual activity (%) 5ay
# Chain of HIPK3(h) (Q9H422 whole entry): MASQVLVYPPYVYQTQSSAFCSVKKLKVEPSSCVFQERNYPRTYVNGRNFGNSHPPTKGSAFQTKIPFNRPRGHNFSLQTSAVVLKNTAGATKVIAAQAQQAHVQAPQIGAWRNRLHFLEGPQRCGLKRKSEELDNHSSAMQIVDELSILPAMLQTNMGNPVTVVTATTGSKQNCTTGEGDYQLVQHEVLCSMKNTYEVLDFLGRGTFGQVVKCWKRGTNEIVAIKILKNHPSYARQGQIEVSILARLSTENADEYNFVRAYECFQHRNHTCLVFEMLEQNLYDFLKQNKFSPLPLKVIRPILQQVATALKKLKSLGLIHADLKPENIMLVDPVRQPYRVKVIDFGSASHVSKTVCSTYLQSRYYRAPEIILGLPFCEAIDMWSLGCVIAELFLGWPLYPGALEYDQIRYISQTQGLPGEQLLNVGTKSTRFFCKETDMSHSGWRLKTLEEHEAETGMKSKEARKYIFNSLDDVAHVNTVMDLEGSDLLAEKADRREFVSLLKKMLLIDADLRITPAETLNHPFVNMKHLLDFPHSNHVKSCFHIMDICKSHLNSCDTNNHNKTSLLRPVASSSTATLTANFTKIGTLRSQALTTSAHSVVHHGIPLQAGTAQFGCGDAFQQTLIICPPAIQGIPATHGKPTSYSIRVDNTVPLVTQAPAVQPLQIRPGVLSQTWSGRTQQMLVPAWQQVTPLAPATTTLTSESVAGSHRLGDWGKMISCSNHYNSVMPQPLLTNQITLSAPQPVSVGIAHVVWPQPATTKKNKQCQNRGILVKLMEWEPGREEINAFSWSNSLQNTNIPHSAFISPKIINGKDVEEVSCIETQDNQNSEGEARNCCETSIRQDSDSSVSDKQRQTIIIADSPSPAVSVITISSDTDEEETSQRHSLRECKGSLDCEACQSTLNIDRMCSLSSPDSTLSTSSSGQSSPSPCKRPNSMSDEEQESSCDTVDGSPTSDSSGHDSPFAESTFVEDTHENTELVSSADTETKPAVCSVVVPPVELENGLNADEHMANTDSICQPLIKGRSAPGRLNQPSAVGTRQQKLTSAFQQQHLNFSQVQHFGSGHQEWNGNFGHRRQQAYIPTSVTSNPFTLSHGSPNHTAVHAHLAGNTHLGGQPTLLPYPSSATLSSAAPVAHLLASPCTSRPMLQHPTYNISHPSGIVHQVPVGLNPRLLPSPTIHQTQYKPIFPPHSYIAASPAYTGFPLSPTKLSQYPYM
# T1 sequence (Q13557 whole entry): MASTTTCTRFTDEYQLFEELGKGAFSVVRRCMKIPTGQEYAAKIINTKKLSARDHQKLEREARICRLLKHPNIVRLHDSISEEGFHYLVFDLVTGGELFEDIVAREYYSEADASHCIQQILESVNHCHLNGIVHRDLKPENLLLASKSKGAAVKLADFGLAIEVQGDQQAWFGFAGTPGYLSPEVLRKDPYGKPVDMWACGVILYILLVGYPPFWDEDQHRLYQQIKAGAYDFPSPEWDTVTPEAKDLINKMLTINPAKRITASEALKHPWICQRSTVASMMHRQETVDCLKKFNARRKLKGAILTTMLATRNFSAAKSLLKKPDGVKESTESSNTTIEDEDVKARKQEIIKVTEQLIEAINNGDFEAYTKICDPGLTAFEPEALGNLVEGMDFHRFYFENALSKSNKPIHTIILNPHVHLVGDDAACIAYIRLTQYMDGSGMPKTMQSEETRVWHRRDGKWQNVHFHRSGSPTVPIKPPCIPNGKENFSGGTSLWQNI
# Chain of Ret (V804L)(h) (P07949 whole entry V804L): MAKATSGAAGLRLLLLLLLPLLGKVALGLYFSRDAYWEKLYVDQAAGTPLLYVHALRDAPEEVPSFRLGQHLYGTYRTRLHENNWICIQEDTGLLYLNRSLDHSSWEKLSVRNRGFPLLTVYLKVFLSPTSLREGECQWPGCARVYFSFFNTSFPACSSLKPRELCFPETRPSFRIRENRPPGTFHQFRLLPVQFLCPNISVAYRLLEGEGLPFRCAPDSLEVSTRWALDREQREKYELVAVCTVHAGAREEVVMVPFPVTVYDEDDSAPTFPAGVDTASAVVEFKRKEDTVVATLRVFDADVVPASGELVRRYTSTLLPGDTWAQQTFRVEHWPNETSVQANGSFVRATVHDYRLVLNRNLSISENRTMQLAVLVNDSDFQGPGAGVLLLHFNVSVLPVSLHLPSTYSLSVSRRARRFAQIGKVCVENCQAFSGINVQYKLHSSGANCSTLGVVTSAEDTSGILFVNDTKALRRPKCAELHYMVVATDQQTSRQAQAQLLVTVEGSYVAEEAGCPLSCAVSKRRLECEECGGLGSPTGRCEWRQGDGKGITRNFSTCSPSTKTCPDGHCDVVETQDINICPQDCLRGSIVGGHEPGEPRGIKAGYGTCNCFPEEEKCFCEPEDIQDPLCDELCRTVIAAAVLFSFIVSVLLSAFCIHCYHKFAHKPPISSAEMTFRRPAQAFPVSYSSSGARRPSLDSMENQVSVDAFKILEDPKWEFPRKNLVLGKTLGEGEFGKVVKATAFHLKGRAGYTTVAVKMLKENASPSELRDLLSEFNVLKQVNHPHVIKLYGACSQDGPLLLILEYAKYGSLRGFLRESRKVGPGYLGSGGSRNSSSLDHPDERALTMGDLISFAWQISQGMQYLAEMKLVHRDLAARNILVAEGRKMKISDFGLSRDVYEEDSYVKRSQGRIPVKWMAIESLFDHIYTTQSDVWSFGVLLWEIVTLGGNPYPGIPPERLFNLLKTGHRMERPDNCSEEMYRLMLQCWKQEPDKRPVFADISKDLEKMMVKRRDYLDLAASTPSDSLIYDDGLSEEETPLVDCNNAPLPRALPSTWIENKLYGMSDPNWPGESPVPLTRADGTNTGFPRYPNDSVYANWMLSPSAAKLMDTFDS
# T3 sequence (P16234 whole entry): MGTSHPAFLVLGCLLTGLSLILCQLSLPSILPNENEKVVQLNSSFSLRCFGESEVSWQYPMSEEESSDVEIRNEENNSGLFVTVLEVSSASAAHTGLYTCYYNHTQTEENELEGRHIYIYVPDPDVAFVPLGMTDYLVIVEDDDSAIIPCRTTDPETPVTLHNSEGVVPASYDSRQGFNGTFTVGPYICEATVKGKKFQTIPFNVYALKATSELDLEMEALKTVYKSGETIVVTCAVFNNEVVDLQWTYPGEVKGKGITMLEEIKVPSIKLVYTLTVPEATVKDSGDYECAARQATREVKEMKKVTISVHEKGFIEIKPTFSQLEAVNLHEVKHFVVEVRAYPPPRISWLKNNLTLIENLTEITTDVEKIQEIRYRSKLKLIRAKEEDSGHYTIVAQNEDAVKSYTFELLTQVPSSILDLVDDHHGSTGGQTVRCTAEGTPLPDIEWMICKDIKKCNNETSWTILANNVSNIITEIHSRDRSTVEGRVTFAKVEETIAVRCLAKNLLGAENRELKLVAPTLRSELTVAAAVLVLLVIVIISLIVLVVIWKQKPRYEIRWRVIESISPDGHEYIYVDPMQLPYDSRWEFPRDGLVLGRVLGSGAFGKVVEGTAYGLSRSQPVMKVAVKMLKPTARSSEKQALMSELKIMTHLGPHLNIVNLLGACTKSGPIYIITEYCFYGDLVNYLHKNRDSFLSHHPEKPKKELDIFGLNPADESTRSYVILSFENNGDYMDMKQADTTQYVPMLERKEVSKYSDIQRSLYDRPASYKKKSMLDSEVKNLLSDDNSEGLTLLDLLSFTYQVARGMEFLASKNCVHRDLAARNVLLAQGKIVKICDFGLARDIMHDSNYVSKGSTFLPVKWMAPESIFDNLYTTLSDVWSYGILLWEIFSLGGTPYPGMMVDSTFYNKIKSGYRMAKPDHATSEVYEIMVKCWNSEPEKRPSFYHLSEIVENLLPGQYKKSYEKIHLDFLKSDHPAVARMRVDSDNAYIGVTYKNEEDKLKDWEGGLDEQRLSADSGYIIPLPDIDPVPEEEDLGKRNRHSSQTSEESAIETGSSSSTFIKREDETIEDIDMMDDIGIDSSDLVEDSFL
# T4 sequence (Q16816 whole entry): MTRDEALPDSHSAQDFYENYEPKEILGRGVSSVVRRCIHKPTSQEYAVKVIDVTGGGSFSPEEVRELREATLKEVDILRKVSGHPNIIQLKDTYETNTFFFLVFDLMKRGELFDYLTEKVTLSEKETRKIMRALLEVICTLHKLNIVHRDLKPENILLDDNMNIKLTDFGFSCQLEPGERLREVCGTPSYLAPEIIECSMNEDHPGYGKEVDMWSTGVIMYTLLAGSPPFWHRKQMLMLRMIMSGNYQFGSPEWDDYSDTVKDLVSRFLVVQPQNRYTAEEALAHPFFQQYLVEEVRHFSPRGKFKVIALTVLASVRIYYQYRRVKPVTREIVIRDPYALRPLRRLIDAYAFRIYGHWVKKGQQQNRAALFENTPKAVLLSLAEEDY
# Chain of MARK1(h) (Q9P0L2 whole entry): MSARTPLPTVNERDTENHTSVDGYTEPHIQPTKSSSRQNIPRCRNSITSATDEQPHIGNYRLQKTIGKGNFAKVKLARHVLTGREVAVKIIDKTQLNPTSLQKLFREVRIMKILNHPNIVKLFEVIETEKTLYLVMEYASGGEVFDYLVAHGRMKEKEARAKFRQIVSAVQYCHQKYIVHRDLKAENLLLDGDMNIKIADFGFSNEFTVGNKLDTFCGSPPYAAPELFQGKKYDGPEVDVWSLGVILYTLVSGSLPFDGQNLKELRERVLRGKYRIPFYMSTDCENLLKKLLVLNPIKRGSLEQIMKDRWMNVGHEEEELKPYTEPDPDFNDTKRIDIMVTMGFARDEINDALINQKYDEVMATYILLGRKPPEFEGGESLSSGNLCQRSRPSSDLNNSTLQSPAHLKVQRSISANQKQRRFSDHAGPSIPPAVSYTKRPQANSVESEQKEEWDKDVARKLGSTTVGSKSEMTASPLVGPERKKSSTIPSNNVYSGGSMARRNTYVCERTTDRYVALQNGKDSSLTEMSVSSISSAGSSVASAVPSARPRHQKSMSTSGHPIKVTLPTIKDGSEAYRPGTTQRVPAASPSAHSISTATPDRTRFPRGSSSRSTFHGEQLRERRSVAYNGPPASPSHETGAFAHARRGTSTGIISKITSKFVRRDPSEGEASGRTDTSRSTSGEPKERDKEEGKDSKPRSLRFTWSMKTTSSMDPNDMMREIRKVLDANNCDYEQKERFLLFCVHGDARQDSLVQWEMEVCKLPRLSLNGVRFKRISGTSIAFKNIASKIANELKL
compound,measurement,setting,value
"Fc1ccc(CNc2ncnc3ccc(F)cc23)cc1 [5aa, 6-Fluoro-N-(4-fluorobenzyl)-4-Quinazolinamine]",remaining activity at 10 µM,CDKL4(h); [1],73%
same,remaining activity at 10 µM,CaMKIIδ(h); [1],90%
same,remaining activity at 10 µM,FGFR2(h); [1],91%
same,remaining activity at 10 µM,HIPK3(h); [1],93%
same,remaining activity at 10 µM,KDR(h); [1],86%
same,remaining activity at 10 µM,MARK1(h); [1],89%
same,remaining activity at 10 µM,MST1(h); [1],91%
same,remaining activity at 10 µM,PDGFRα(h); [1],111%
same,remaining activity at 10 µM,PhKγ1(h); [1],102%
same,remaining activity at 10 µM,Ret (V804L)(h); [1],82%
same,remaining activity at 10 µM,TRB2(h); [1],69%
"Fc1ccc(CCNc2ncnc3ccc(F)cc23)cc1 [5as, 6-Fluoro-N-[2-(4-Fluorophenyl)Ethyl]-4-Quinazolinamine]",remaining activity at 10 µM,CDKL4(h); [2],94%
same,remaining activity at 10 µM,CaMKIIδ(h); [2],79%
same,remaining activity at 10 µM,FGFR2(h); [2],99%
same,remaining activity at 10 µM,HIPK3(h); [2],98%
same,remaining activity at 10 µM,KDR(h); [2],77%
same,remaining activity at 10 µM,MARK1(h); [2],96%
same,remaining activity at 10 µM,MST1(h); [2],78%
same,remaining activity at 10 µM,PDGFRα(h); [2],90%
same,remaining activity at 10 µM,PhKγ1(h); [2],120%
same,remaining activity at 10 µM,Ret (V804L)(h); [2],78%
same,remaining activity at 10 µM,TRB2(h); [2],65%
"Fc1ccc2ncnc(NCCc3ccc(Cl)cc3)c2c1 [5at, N-[2-(4-Chlorophenyl)Ethyl]-6-Fluoro-4-Quinazolinamine]",remaining activity at 10 µM,CDKL4(h); [3],92%
same,remaining activity at 10 µM,CaMKIIδ(h); [3],77%
same,remaining activity at 10 µM,FGFR2(h); [3],84%
same,remaining activity at 10 µM,HIPK3(h); [3],95%
same,remaining activity at 10 µM,KDR(h); [3],74%
same,remaining activity at 10 µM,MARK1(h); [3],82%
same,remaining activity at 10 µM,MST1(h); [3],97%
same,remaining activity at 10 µM,PDGFRα(h); [3],95%
same,remaining activity at 10 µM,PhKγ1(h); [3],141%
same,remaining activity at 10 µM,Ret (V804L)(h); [3],71%
same,remaining activity at 10 µM,TRB2(h); [3],60%
"COc1ccc2ncnc(Nc3cccc(F)c3)c2c1 [5ay, N-(3-Fluorophenyl)-6-Methoxy-4-Quinazolinamine]",remaining activity at 10 µM,CDKL4(h); [4],38%
same,remaining activity at 10 µM,CaMKIIδ(h); [4],41%
same,remaining activity at 10 µM,FGFR2(h); [4],96%
same,remaining activity at 10 µM,HIPK3(h); [4],84%
same,remaining activity at 10 µM,KDR(h); [4],64%
same,remaining activity at 10 µM,MARK1(h); [4],89%
same,remaining activity at 10 µM,MST1(h); [4],70%
same,remaining activity at 10 µM,PDGFRα(h); [4],101%
same,remaining activity at 10 µM,PhKγ1(h); [4],121%
same,remaining activity at 10 µM,Ret (V804L)(h); [4],91%
same,remaining activity at 10 µM,TRB2(h); [4],31%

# From publication PMC7827406, “Structure–Activity Relationship (SAR) Study of Spautin-1 to Entail the Discovery of Novel NEK4 Inhibitors” (International Journal of Molecular Sciences, 2021)
